{
  "source": "ChEMBL document CHEMBL1152311",
  "about": "“A multipronged approach to the study of peruvian ethnomedicinal plants: a legacy of the ICBG-Peru Project” (J Nat Prod, 2009)",
  "system": "Mycobacterium tuberculosis",
  "assay": "Antituberculosis activity against multidrug-resistant Mycobacterium tuberculosis",
  "type": "functional, organism-based",
  "data": [
    {"molecule": "C[C@H](C/C=C\\C(C)(C)OO)[C@H]1CC[C@@]2(C)[C@@H]3CC[C@H]4C(C)(C)[C@@H](O)CC[C@@]45C[C@@]35CC[C@]12C", "values": [
      {"measurement": "IC50", "result": 27.3, "unit": "µM"}
    ]}
  ]
}
